Read-outs that look alike come from different tables or passages of the source.
Legend:
[1] = target: T1, human platelet PLA2 (Homo sapiens, UniProt P14555); experiment: in vitro assay of inhibition of human platelet PLA2 (hydrolysis of [1-14C]oleic acid labelled E. coli membrane phospholipids); format: biochemical
T1 construct: The PLA2 enriched supernatant fluid is removed; from tissue; host or cells: expired human platelets from the blood bank (acid extract, 10,000 g supernatant)
T1 sequence (P14555 21-144): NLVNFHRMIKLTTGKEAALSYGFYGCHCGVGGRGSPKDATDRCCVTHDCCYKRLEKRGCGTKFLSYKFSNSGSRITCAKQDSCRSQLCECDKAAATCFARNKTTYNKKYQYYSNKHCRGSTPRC
Experimental: The ability of the compounds to inhibit the activity of PLA2 enzyme is measured in the following in vitro assay.
(§1) The assay is carried out as follows:
E. coli, cultured to exponential growth, are sedimented for 15 minutes at 10,000 g and resuspended in sterile isotonic saline (1-3 ml). 10-25 μCi [1-^14 C] oleic acid is added to a sterile flask, evaporated by N2 and resolubilized with 0.3 ml 20% fatty acid-free BSA. 75-100 ml of nutrient broth and 1 ml E. coli are then added to each flask and incubated for 2-3 hours at 37° C. [1-^14 C] oleic acid labelled E. coli are then sedimented, suspended in saline and added to fresh nutrient broth and incubated for 1.5 hours at 37° C. to complete [1-^14 C] oleic acid incorporation into the phospholipids. After overnight refrigeration of cultures, E. coli are again sedimented, suspended in saline and autoclaved for 15 minutes at 120° C. E. coli cultures are washed twice with saline (first wash contains 1% BSA) and resuspended in saline. Non-labelled E. coli cultures are also prepared in the same manner. Cell number is determined by measuring the optical density at 550 nm ([…]=1 O.D.). The amount of radioactivity associated with cells is determined by counting a defined volume of cell suspension. The specific activity is subsequently adjusted by adding non-labelled E. coli to yield 2-4×10 cpm per 1×10^10 E. coli. [1-^14 C] arachidonic acid-labelled E. coli are similarly prepared.
Platelet PLA2 Preparation
Expired human platelets from the blood bank are centrifuged for 15 minutes at 200 g to obtain a platelet rich plasma fraction and to remove the red blood cells. Platelets are sedimented for 15 minutes at 2500 g and the plasma is removed before adding cold 0.18N […] (4 ml/unit). Platelets are homogenized, incubated for 1 hour at 4° C., homogenized again and centrifuged for 15 minutes at 10,000 g. The PLA2 enriched supernatant fluid is removed and the amount of protein is determined by the Lowry method. The preparation is divided into various portions and stored at -20° C.
The assay measures the hydrolysis of E. coli membrane phospholipids and the release of free [1-^14 C] oleic acid from the C-2 position of phospholipids by human platelet PLA2. To ice cold 15×100 mm test tubes, the following additions are made: 2,5×10 E. coli (equivalent to 4 nmol phospholipid), 5 mM Ca^++, 100 mM Tris buffer (pH=7.4), 100 μg platelet extract (or an amount to produce 20-30% hydrolysis), drug or vehicle. The final volume is adjusted to 500 μl with water. Mixtures are vortexed and incubated for 30 minutes in a shaking water bath. It should be noted that preliminary experiments are always performed with each new batch of platelets to establish linear hydrolysis of phospholipids with regard to protein concentration and time. The enzyme reaction is stopped by the addition of 3 volumes of CHCl3 to each tube which is vortexed and then centrifuged for 5 minutes at 500 g. The lower CHCl3 /CH3 OH phase is removed and evaporated under N. The dried residue is redissolved in 50 μl CHCl3 :CH3 OH (9:1 v/v), spotted on aluminum-backed chromatographic plates and developed in a solvent system consisting of petroleum ether:diethyl ether:acetic acid (80:20:1). Free fatty acid ([1-^14 C]oleic acid) and [1-^14 C]oleic acid labeled phospholipids are visualized with exposure to iodine vapors. Radioactive areas that cochromatographed with authentic oleic acid and phospholipid standards are cut out and placed in a scintillation vial. One ml CH3 OH and 10 ml Hydrofluor are added to each cut strip and radioactivity is determined by liquid scintillation counting.
The percent hydrolysis is calculated by the following equation: [formula]

[2] = test system: lipoxygenase and/or cyclooxygenase pathways of arachidonic acid; experiment: in vivo 12-O-tetradecanoylphorbol acetate (TPA)-induced murine ear edema test; design: species or system Swiss Webster female mice; conditions: 30 minutes after TPA, ears measured after 4 hours; for % Change from Control, TOPICAL TPA: 1 mg/ear; for % Change from Control, ORAL TPA: 100 mg/kg
Source text: (§2) The ability of the compounds of the invention to inhibit the lipoxygenase and/or cyclooxygenase pathways of arachidonic acid is examined in the in vivo arachidonic acid (AA)-/12-O-tetradecanoylphorbol acetate (TPA)-induced murine ear edema test.
(§3) According to this test, Swiss Webster female mice (Buckshire), approximately 8 weeks old, are placed into plastic boxes in groups of six. Eight groups of mice receive AA topically on the right ear, and another 8 groups receive TPA topically on the right ear. AA and TPA are dissolved in acetone at concentrations of 100 mg/ml ad 100 μg/ml respectively. The phlogistics are applied to the right ear by the means of an automatic pipet. Volumes of 10 μl are applied to the inner and outer surfaces of the ear. Each mouse receives either 2 mg/ear AA or 4 μg/ear TPA. The left ear (control) receives acetone delivered in the same manner. Oral and topical dosing regimens are as follows: (1) drugs are given 30 minutes prior to AA treatment, and (2) drugs are given 30 minutes after treatment with TPA.
(§4) Measurements are taken with Oditest calipers, 0-10 mm with 0.01 graduations. The right and left ears are measured after 1 hour AA-induced inflammation and 4 hours after TPA-induced inflammation.
(§5) The difference between right and left ear thickness is calculated and the significance is determined by a one way analysis of variance with Dunnett's comparisons to control (P=0.05). Drug effects are expressed as a percent change from control values: [formula]

[3] = test system: lipoxygenase and/or cyclooxygenase pathways of arachidonic acid; experiment: in vivo arachidonic acid (AA)-induced murine ear edema test; design: species or system Swiss Webster female mice; conditions: 1 mg/ear, 30 minutes prior to AA, ears measured after 1 hour
Source text: as §2
as §3, with “Oral and topical dosing regimens are as follows: (1) drugs are given 30 minutes prior to AA treatment, and (2) drugs are given 30 minutes after treatment with TPA.” left out
as §4, §5

[4] = test system: synthesis of arachidonic acid by murine peritoneal macrophages; experiment: inhibition of arachidonic acid (AA) synthesis by murine peritoneal macrophages; format: cell-based, CD-1 mice; conditions: compounds at 10 μm (so in the source)
Experimental: (§6) The ability of the compounds of the invention to inhibit both leukotriene and prostaglandin synthesis is examined in an assay which measures the ability of the compounds of the invention to inhibit the synthesis of arachidonic acid, PGE2 and LTC4 by murine peritoneal macrophages.
as §1
(§7) Macrophages are removed from the peritoneal cavity of 55-57 day old CD-1 mice (killed by CO2 asphyxiation) by peritoneal lavage and centrifuged at 400×g for ten minutes. The cells are resuspended in Medium 199 and 4×10^6 cells are allowed to adhere on 35×10 mm Petri dishes for 1.5 hours at 37° C. in an atmosphere of 95% air and 5% CO2. The cell monolayers are washed and incubated overnight in Medium 199 supplemented with 10% heat inactivated bovin serum containing 1 μCi[^14 C]-arachidonic acid, or in the absence of ^14 C-arachidonic acid when the supernatant is to be assayed by radioimmunoassay (RIA). The labeled cells are then washed and incubated at 37° C. for 2 hours in Medium 199 with the prostaglandin stimuli, zymosan, or 12-o-tetradecanoyl-phorbol-13-acetate (TPA) and in the presence or absence of test compounds. Following incubation, the supernatant is removed and subjected to radioimmunoassay in order to determine the percent inhibition of arachidonic acid, prostaglandin E2 and leukotriene C4 by the test compounds.

[5] = test system: synthesis of LTC4 by murine peritoneal macrophages; experiment: inhibition of LTC4 synthesis by murine peritoneal macrophages; format: cell-based, CD-1 mice; conditions: compounds at 10 μm (so in the source)
Experimental: as §6, §1, §7

[6] = test system: synthesis of PGE2 by murine peritoneal macrophages; experiment: inhibition of PGE2 synthesis by murine peritoneal macrophages; format: cell-based, CD-1 mice; conditions: compounds at 10 μm (so in the source)
Experimental: as §6, §1, §7

[7] = compounds of the invention, Table 1, read-out: IC50 (inhibition of PLA2)

Molecule | inhibition at 100 µM [1] | IC50 [1, 7] | % Change from Control, TOPICAL TPA [2] | Mean % Inhibition ± S.E., AA [4] | Mean % Inhibition ± S.E., LTC4 [5] | Mean % Inhibition ± S.E., PGE2 [6] | other results
CCCCCCCCCCCCNC(=O)OCCCCCCN(C)C [Example 1, Dodecylcarbamic acid 6-(dimethylamino)hexyl ester] | 100% |  |  |  |  |  | 
CCCCCCCCCCCCCCCCNC(=O)OCCCCCCN(C)C [Example 2, Hexadecylcarbamic acid 6-(dimethylamino)hexyl ester] | 100% | 30 µM | -42% | 36.92 ± 6.29% | 81.00 ± 1.79% | 81.18 ± 2.06% | % Change from Control, TOPICAL AA [3]: -29%
CCCCCCCCCCCCCCCCNC(=O)OCCCN(C)C [Example 3, Hexadecylcarbamic acid 3-(dimethylamino)propyl ester] | 100% |  |  |  |  |  | 
CCCCCCCCCCCCCCC(=O)NCCCN(C)C [Example 4, N-[3-(dimethylamino)propyl]pentadecanamide] | 100% | 6.8 µM | -48% | 34.12 ± 5.58% | 91.95 ± 2.57% | 48.62 ± 9.32% | % Change from Control, ORAL TPA [2]: -60%
CCCCCCNC(=O)OCCCCCCN(C)C [Example 5, Hexylcarbamic acid 6-(dimethylamino)hexyl ester] | 11% |  |  |  |  |  | 
CCCCCCCCCCCCCCCCNC(=O)NCCCN(C)C [Example 6, N-[3-(dimethylamino)propyl]-N'-hexadecylurea] | 100% |  |  |  |  |  | 
CCCCCCCCCCCCCCCCS(=O)(=O)NCCCCCCCN(CC)CC [Example 7] | 94.4% |  |  |  |  |  | 
CCCCCCCCCCCCCC(=O)NN(C)C [Example 8, Tetradecanoic acid 2,2-dimethylhydrazide] | 55.9% |  |  |  |  |  | 
CCCCCCCCCCCCCC(=O)N1CC(C)NC(C)C1 (stereo not shown) [Example 9, 3,5-Dimethyl-1-(1-oxotetradecyl)piperazine] | 100% | 8.5 µM | -55% | 50.42 ± 2.50% | 82.15 ± 2.48% | 73.50 ± 8.20% | % Change from Control, ORAL TPA [2]: -25%
Gold Sodium Thiomalate [reference compound] |  |  |  |  |  |  | IC50 ([1]; standard drugs, read-out: Inhibition of PLA2 Activity IC50): 43 µM

Source: patent US4824996A, “Phospholipase A2 inhibitors” (American Home Products Corporation, priority 1986, dated 1989)
